Compound | melting point
CSc1ncc(O)c(O)n1 | 213 to 215 °C
CCOC(=O)C1N=C(c2ccccc2)c2cc([N+](=O)[O-])ccc2NC1=O (stereo unspecified) | 271 °C
CCOC1OC(O)C(F)(F)C(F)(F)C1(F)F (stereo unspecified) | 84 to 86 °C
CCCN(C)S(=O)(=O)c1nnc(NC(=O)N(C)C)s1 | 152 to 153 °C
COc1ccc(CCNC(=O)C(F)(F)F)cc1NS(C)(=O)=O | 129 to 130 °C
Cn1cc([N+](=O)[O-])cc1CO | 89 to 90 °C
CC(=O)c1ccc2c(c1)CCCS2 | 49.5 to 50.5 °C
OCC1NCc2ccsc2-n2cccc21 (stereo unspecified) | 166 °C
CC[C@H]1[C@H](O)CC(=O)N1c1ccc(C#N)c(C(F)(F)F)c1 | 111 to 112 °C
CC(C)Cc1cc([N+](=O)[O-])c2c(c1O)C(=O)c1c(O)c(CC(C)C)cc([N+](=O)[O-])c1C2=O | 198 to 200 °C
CCCCCCCCCCCCCCCCC(Br)CO (stereo unspecified) | 39 to 39.5 °C
CC(=O)OCC1C(C(=O)O)C1(C)C (stereo unspecified) | 78 to 79 °C
COC[C@@H]1CCCN1S(=O)(=O)c1ccc2c(c1)C(=O)C1=NCCCN12 | 138 to 141 °C
Cc1cc(C=O)ccc1C=O | 71 to 72 °C
CCC(CC)O[C@@H]1C=C(C(=O)O)C[C@H](CC(O)CO)[C@H]1NC(C)=O (stereo partly specified) | 189 to 190 °C
N#Cc1ccc(C(O)CCN2CC=C(c3ccc(Cl)cc3)CC2)cc1 (stereo unspecified) | 117 to 118 °C
O=S1(=O)C=CC=CC=N1 | 144 to 146 °C
CS(=O)(=O)c1cc([N+](=O)[O-])c(C(=O)O)cc1N(CCBr)CCBr | 174 to 176 °C
CCCCCCCCCCN1C(=O)C2CC2(c2ccc(N)cc2)C1=O (stereo unspecified) | 92 to 94 °C
O=[N+]([O-])c1cc2c(cc1NCC(O)CO)OCO2 (stereo unspecified) | 120 to 121 °C
CN1C(=O)Nc2cc(Cl)c(Cl)cc2C1(O)C(=O)NC(N)=S (stereo unspecified) | 225 to 228 °C

Compound | melting point
C=CC(C)(O)C=CC1=C(C)C(=O)C(OC(C)(C)OC)CC1(C)C (stereo unspecified) | 47.5 to 49 °C
CS(=O)(=O)c1ccc2[nH]cc(CCN)c2c1 | 134 to 138 °C
CC12CCC3C(CC(O)C4(O)CC=CCC34C)C1CC=C2Br (stereo unspecified) | 170 to 175 °C
N#Cc1nn(-c2c(Cl)cc(C(F)(F)F)cc2Cl)c(NCc2ccncc2)c1SCF | 204 °C
Cc1oc2ccccc2c1OC(C)(C)C#N | 53 to 55 °C
CC(=O)NC(=O)NCC(=O)N1CC1C#N (stereo unspecified) | 118 to 122 °C
CCCCCCSC1=CC(=O)NC1=O | 99 to 101 °C
O=C(O)C1=CC(CF)(CF)Oc2ccc(C(F)(F)C(F)(F)C(F)(F)F)cc21 | 162 to 163 °C
CN(C)CCc1c[nH]c2ccc(CC3COC(=O)N3)cc12 (stereo unspecified) | 138 to 140 °C
O=S(=O)(F)c1c(F)nc2ccccn12 | 108 to 110 °C
O=COCc1c(Cl)ccc2cc(Cl)cnc12 | 146 °C
COc1cc2ncnc(N3CCC(CN4C=CC=NS4(=O)=O)CC3)c2cc1OC | 173 to 174 °C
O=[N+]([O-])C1([N+](=O)[O-])COC1 | 70 to 71 °C
COC(=S)c1sc(C)c(N)c1N | 95 to 97 °C
CCCCCCCCCCCCCCC(=O)NCCCN(C)C | 46 to 48 °C
CC(=O)O[C@@H]1[C@H](OC(C)=O)[C@@H](C)O[C@H]1n1c(Br)nc2c(Br)c(Cl)c(Cl)cc21 | 152 to 154 °C
COc1cc(C=CC(=O)OC2CC3CC(OC(=O)C=Cc4cc(OC)c(OC)c(OC)c4)C(C2)N3C)cc(OC)c1OC (stereo unspecified) | 53 to 57 °C
CCCCN(CCCC)c1ccc(C=CC=Cc2ccc(C=CC3=C(C#N)C(=C(C#N)C#N)OC3(C)C)s2)c(OC)c1 | 185 to 187 °C
CCN(CC)C(=S)c1cccc(F)c1[Si](C)(C)C | 71 to 73 °C
CCCOc1cnc(CCl)cc1O | 165 to 167 °C
COc1cc(C=CC#N)cc(OC)c1OC | 92.1 °C

Other lines, results leading:

melting point | Compound
141 to 144 °C | CC(C)C(NC(=O)OCC1c2ccccc2-c2ccccc21)C(=O)Nc1n[nH]c(=S)s1 (stereo unspecified)
173 to 176 °C | CCOCc1nnc(C)n1-c1ccc(Cl)cc1C(=O)O
195 to 197 °C | NC(=O)c1nnsc1Nc1ccccc1
222 °C | CCNS(=O)(=O)c1cccc(NC(=O)c2cnn3c(C(F)F)cc(-c4ccc(C(F)(F)F)c(OCC)c4)nc23)c1
182 °C | O=[N+]([O-])c1cccc(-c2csc(Nc3ccccc3C(F)(F)F)n2)c1
50 to 52 °C | COc1cccc(C(=O)c2ccc(F)cc2F)c1
188 to 189 °C | CCc1cc(C#N)cc2c(NCc3ccc(OC)c(Cl)c3)c(CO)cnc12
287 to 292 °C | CCOC(=O)c1cc(=O)c2[nH]ncc2[nH]1
80 °C | NCC1CCN(C(c2ccccc2)c2ccccc2)CC1
192 to 193 °C | N#Cc1ccc(Oc2nccc(-c3c(-c4ccc(F)cc4)ncn3C3CCNCC3)n2)cc1
98 to 102 °C | COC(=O)C=C(C)c1ccc(CCC(C)(C)NCC(O)c2ccccc2)cc1 (stereo unspecified)
75 to 77 °C | CCCCCCc1c(C(C)C)nc(C(C)C)c(C(C)O)c1-c1ccc(F)cc1 (stereo unspecified)
255 to 257 °C | CCC(C)(C)Nc1c(NCc2ccc(F)cc2)c(=O)c1=O
189 to 190 °C | COCSc1nccn1-c1cccc(C2=Nc3ccc(-c4ccccc4F)cc3NC(=O)C2)c1
101 to 103 °C | Cn1c(C(=O)C(C)(C)C)cc2cc(OCc3ccccc3)ccc21
169 to 174 °C | CCOC(Cc1cnc2ccc(OCc3ccc([N+](=O)[O-])cc3)cc2c1)C(=O)O (stereo unspecified)
270 to 274 °C | CC1(C)[C@@H](C(=O)Nc2ccncc2)[C@@H]1c1ccc(S(N)(=O)=O)cc1 (relative stereo)
107 to 110 °C | CS(=O)(=O)c1ccc(C(CC2CCCC2)C(=O)Nc2ccccn2)cc1S(C)(=O)=O (stereo unspecified)
163 °C | CC(C)(C)c1ccc(OCC(=O)NCc2ccc(NS(C)(=O)=O)cc2)cc1
192 to 194 °C | COc1ccc(C(=CC(=O)N2CCOCC2)c2ccc(CC(=O)O)cc2)cc1OC

melting point | Compound
207 to 208 °C | COc1cc(C#CCO)cc2c(O)c(C(=O)NCc3ccc(Cl)cc3)cnc12
207 to 208 °C | O=c1nc(-c2cccc(CNS(=O)(=O)c3ccccc3)n2)sc2ccccc12
131 to 134 °C | CC(CSCCSCCSCC(C)C(=O)Nc1ccc(Nc2ccccc2)cc1)C(=O)Nc1ccc(Nc2ccccc2)cc1 (stereo unspecified)
141 to 142 °C | Cc1cc(Oc2cccc(C#CC(C)N(O)C(N)=O)c2)ccc1F (stereo unspecified)
186 °C | O=C(NC(=O)c1ccc(F)cc1Cl)Nc1ccc(OC(F)(F)C(F)Cl)c(Cl)c1 (stereo unspecified)
177 to 178 °C | O=C1CCN(Cc2cc([N+](=O)[O-])ccc2O)CC1C(c1ccccc1)c1ccccc1 (stereo unspecified)
258 to 259 °C | CNC(=NC#N)NCc1ncc(-c2csc(N=C(N)N)n2)s1
229 to 231 °C | COc1cn(-c2ccc(C3=CCOCC3)cc2F)nc(-c2ccnn2-c2ccccc2)c1=O
141 to 145 °C | Cc1cc(C2CCN(S(=O)(=O)C3(C(=O)NO)CCOCC3)CC2)ccc1-c1cccc(OC[C@H](O)CO)c1
178 °C | Cc1cc(OCC2(O)CCS(=O)(=O)CC2)cc(C)c1-c1cccc(CNc2ccc(CCC(=O)O)c(F)c2)c1
242 to 244 °C | O=C(O)Cc1c(C(=O)c2ccc(Cl)cn2)[nH]c2cc(Cl)ccc12
104 to 106 °C | CC(O)(CO)c1cccc(OCc2ccc3ccccc3c2)c1 (single isomer, unassigned; (-))
76.5 to 77.5 °C | COC(=O)c1cccc2c1CCC2C#N (stereo unspecified)
186 to 187 °C | CC(C)(C)c1cc(CCc2ccccc2NC(=O)NC2CCCC2)cc(C(C)(C)C)c1O
184 to 186 °C | CC(=O)SCC(CC(C)C)C(=O)Nc1cccc(C(=O)O)c1 (stereo unspecified)
101 to 102 °C | Cc1oc(-c2ccccc2)nc1COc1ccc(CON=C(CCCCC(=O)O)c2ccccc2)cc1
154 to 155 °C | COC(=O)C1=C(C)NC(C)=C(C(=O)OC)C1c1ccc(OC)c(OC)c1
197 to 200 °C | O=CNC1Cc2ccccc2NC1=O (stereo unspecified)
> 265 °C | CN1C(=O)CC[C@]2(C)c3ccc(-c4ccc(NC(=O)C(C)(C)C)cc4)cc3CC[C@@H]12
150 to 151 °C | CN(C)c1c(CS(=O)(=O)C2=NOC(C)(C)C2)c(C(F)(F)F)nn1-c1ccccc1

melting point | Compound
118 to 119 °C | CCCC(=O)ON=C(c1ccccc1)c1cc(C(C)(C)C)c(O)c(C(C)(C)C)c1
154 to 156 °C | CCOCc1nc2c(N)nc3ccccc3c2n1CCOCCNC(=O)c1ccccc1
174 to 175 °C | CCOc1c(C)c(NC(=O)CC(C)(C)C)c(C)c2c1OCC2c1ccc(C(C)C)cc1 (stereo unspecified)
105 to 108 °C | O=C1OCCN1N=C1CCOc2ccccc21
183 to 185 °C | Cc1ccn(-c2ccc(C(=O)N3Cc4cccnc4Nc4ccccc43)c(C(F)(F)F)c2)n1
245 to 246 °C | Clc1ccccc1N1CCN(Cc2nc3ccccc3[nH]2)CC1
112 to 114 °C | COC(=O)[C@H](CC(C)C)NC(=O)[C@H](NC(=O)OCc1ccccc1)C(C)C
91 to 92 °C | CCC(=O)c1ccc(CCN(C(C)=O)S(=O)(=O)c2ccc(Cl)cc2)cc1
116 to 118 °C | CCCCCCNC(=O)OCc1ccc(CNC(=O)OC2CCN(C(=O)Oc3ccc(Oc4ccccc4)cc3)CC2)cc1
220 to 225 °C | NNC(=O)Cc1cccc(Cl)n1
82 to 83 °C | Cc1ccc(C(=C/C=C/CO)c2ccc(C)cc2)cc1
70 to 72 °C | O=C(c1ccccc1)c1cc(Cl)ccc1C=CCN1C(=O)c2ccccc2C1=O
153 to 155 °C | C=CCOc1ccc2c(C)cc(=O)oc2c1C(=O)C=Cc1ccc(Cl)cc1
158 to 160 °C | COc1ccc(COC(=O)CC(=O)Oc2ccc3sc4nc(-c5ccc(OC)cc5)cn4c3c2)cc1
165 to 167 °C | COC(=O)c1ccc(C(C)(C)NC(C)=O)cc1
164 °C | CC(=O)OC1CSC(Oc2ccc(-c3ccncc3)nc2F)C(OC(C)=O)C1OC(C)=O (stereo unspecified)
212 to 213 °C | CCCCC(Oc1c(Br)cc(-c2c3ccccc3c(Br)c3sc4ccccc4c23)cc1Br)C(=O)O (stereo unspecified)
155 to 156 °C | Cc1cc(-c2csc(-c3cccc(C(=O)O)c3)n2)c(C)s1
147 °C | COc1ccccc1C1=CC(N2CCN(Cc3ccc(C)cc3)CC2)=NC12C=CC(=O)C=C2

Reference: a melting point compilation (Tetko et al.; mined from patent text by program, amines drawn as free bases though some values may be those of a salt)
